Structures can show the parent of a compound that is named as a salt.
How the values were obtained:
Assay type in all cases: biochemical
[1] = target: T1, human JAK2 (a.a. 828-1132) (Homo sapiens, UniProt O60674); assay: In vitro JAK kinase assay (HTRF, phosphorylation of a biotinylated peptide), JAK2; conditions: Table B1
T1 construct: JAK2 (a.a. 828-1132); His tag (N); made in house; host or cells: insect cells (baculovirus)
Summary of the method: (§1)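 Kinase reactions ran at room temperature for 1 h with ATP matched per isoform (JAK1 90 μM, JAK2 30 μM, JAK3 3 μM). After an EDTA stop, the phosphorylated biotin-peptide was read by HTRF using Eu-Py20 and SA-APC after 40 min binding.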

[2] = target: T2, Recombinant Human Anaplastic Lymphoma Kinase (Homo sapiens, UniProt Q9UM73); assay: ALK HTRF kinase assay; conditions: for IC50: Table B1, cells without percent sign; for ALK % of inhibition at a concentration of 500 nM or 1 mM: compound at a concentration of 500 nM or 1 mM (not specified), cells shown as percentage
T2 construct: purchased Invitrogen, Carlsbad, Calif
T2 sequence (Q9UM73 19-1620): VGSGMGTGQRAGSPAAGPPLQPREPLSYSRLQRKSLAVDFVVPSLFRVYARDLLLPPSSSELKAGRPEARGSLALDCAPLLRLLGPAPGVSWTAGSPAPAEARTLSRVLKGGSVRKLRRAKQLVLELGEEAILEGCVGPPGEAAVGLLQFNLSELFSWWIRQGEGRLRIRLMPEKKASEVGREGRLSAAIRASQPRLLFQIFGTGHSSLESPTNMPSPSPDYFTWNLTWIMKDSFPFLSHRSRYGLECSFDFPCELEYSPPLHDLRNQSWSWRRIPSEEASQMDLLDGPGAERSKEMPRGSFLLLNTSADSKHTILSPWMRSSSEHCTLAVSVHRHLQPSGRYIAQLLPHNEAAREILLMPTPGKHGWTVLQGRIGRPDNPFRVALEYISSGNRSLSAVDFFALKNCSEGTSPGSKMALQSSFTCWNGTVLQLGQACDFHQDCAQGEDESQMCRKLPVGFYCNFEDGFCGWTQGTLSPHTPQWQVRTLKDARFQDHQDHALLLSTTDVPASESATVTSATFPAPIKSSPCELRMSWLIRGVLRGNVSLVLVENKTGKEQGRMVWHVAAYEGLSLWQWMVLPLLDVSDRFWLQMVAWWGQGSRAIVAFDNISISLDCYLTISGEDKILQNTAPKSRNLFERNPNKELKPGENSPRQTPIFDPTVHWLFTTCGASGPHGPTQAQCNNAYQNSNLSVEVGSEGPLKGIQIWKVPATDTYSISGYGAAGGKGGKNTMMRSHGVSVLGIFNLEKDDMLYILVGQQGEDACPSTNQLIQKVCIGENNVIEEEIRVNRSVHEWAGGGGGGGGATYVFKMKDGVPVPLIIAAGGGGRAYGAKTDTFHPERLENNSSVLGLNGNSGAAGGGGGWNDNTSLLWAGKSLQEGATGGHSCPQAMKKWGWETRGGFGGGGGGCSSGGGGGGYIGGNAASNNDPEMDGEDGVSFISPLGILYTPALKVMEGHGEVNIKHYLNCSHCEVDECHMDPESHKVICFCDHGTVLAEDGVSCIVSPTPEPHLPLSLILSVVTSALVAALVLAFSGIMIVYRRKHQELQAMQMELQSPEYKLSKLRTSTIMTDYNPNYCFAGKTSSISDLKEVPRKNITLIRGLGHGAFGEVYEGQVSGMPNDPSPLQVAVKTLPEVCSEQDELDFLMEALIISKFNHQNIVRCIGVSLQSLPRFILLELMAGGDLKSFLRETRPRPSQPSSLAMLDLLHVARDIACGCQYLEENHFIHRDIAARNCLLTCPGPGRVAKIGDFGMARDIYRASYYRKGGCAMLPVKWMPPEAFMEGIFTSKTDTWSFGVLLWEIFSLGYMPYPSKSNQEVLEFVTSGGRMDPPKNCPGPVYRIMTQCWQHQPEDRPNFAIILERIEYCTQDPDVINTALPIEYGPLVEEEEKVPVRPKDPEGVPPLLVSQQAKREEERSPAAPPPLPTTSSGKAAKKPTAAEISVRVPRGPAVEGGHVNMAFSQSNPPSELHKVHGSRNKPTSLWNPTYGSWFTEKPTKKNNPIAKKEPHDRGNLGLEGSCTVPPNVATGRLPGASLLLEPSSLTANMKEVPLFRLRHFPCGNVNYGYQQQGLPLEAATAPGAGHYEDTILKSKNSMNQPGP
Summary of the method: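 Recombinant human ALK phosphorylated a biotinylated synthetic peptide. Phosphotyrosine was detected by TR-FRET between a Eu-labelled anti-phosphotyrosine antibody and streptavidin-allophycocyanin. IC50 values came from fitting signal against inhibitor concentration to a four-parameter logistic equation with variable Hill slope.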

[3] = target: T3, human JAK3 (a.a. 781-1124) (Homo sapiens, UniProt P52333); assay: In vitro JAK kinase assay (HTRF, phosphorylation of a biotinylated peptide), JAK3; conditions: Table B1
T3 construct: JAK3 (a.a. 781-1124); His tag (N); made in house; host or cells: insect cells (baculovirus)
T3 sequence (P52333 781-1124): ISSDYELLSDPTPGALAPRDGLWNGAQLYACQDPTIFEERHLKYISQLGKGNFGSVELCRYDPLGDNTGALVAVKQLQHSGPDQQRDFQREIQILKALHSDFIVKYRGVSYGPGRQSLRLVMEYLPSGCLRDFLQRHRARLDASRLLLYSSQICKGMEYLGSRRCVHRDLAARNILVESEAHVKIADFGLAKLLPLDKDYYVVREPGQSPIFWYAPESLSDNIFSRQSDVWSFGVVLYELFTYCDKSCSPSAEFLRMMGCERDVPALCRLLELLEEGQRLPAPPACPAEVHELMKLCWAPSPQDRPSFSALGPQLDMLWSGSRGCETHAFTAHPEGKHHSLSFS
Summary of the method: as §1

[4] = target: T4, human JAK1 (a.a. 837-1142) (Homo sapiens, UniProt P23458); assay: In vitro JAK kinase assay (HTRF, phosphorylation of a biotinylated peptide), JAK1; conditions: Table B1; read-out: JAK1 IC50
T4 construct: human JAK1 (a.a. 837-1142); His tag (N); made in house; host or cells: insect cells (baculovirus)
T4 sequence (P23458 849-1154): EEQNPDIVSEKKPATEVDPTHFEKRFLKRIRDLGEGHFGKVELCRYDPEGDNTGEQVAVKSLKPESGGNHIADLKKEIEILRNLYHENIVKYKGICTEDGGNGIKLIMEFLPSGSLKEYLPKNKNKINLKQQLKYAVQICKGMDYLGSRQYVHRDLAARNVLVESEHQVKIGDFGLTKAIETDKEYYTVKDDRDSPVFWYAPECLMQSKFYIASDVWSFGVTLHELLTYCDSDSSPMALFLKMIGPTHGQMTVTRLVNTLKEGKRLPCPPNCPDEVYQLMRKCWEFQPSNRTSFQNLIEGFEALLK
Summary of the method: as §1

[5] = target: TYK2 (Homo sapiens, UniProt P29597); assay: TYK2 kinase inhibition (Table A1); conditions: Table B1
TYK2, sequence (P29597 whole entry): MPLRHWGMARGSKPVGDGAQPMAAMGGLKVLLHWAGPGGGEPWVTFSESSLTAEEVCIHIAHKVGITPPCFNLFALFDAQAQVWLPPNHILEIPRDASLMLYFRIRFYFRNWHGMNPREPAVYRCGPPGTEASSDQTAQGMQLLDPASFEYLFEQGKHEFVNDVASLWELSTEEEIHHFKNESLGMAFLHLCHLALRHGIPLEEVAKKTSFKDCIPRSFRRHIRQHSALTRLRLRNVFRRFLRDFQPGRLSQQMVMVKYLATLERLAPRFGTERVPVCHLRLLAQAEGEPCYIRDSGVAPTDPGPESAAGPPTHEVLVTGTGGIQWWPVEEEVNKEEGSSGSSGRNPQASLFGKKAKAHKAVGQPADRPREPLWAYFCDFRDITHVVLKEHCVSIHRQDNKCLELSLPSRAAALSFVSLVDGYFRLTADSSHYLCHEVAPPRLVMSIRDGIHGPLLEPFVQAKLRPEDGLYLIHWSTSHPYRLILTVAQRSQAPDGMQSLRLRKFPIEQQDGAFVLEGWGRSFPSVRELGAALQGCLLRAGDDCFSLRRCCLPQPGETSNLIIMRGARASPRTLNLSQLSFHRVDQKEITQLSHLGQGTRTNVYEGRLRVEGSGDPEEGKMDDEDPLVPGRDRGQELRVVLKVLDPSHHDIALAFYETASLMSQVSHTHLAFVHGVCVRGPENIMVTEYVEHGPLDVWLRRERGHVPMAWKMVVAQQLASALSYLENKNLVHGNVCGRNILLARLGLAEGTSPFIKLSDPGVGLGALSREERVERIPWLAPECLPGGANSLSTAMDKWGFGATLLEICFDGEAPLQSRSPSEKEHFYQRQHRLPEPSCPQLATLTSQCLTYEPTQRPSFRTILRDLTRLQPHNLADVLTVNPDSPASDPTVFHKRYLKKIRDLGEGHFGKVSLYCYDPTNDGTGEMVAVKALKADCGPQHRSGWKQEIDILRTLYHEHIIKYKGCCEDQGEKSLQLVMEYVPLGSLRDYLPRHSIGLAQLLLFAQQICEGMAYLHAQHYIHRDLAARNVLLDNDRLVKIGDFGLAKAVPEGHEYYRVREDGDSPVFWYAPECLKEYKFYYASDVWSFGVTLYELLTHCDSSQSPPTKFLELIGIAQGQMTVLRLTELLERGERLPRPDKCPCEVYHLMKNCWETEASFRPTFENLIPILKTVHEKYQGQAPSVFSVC

T1 sequence (O60674 828-1132): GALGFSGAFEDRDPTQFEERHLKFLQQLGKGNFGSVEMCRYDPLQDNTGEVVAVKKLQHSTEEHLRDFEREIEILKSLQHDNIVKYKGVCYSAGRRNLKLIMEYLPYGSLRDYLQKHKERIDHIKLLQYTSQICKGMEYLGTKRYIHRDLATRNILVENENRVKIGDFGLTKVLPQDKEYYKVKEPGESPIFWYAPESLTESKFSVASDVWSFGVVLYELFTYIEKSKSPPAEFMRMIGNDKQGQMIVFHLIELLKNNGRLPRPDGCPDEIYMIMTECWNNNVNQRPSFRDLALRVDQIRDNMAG

Structure (SMILES) | IC50 [1] [µM] | IC50 [2] [µM] | IC50 [3] [µM] | IC50 [4] [µM] | IC50 [5] [µM] | ALK % of inhibition at a concentration of 500 nM or 1 mM [2] [%]
O=C(Nc1cc2cc(c1)Nc1nc(ncc1Cl)Nc1cccc(c1)CC2)c1nc2ccccc2s1 [Example B204, N-[6-Chloro-2,4,8,22-tetraazatetracyclo[14.3.1.1(3,7).1(9,13)]docosa-1(20),3(22),4,6,9(21),10,12,16,18-nonaen-11-yl]-1,3-benzothiazole-2-carboxamide trifluoroacetate] | 0.5 | > 10 | > 1 | > 1 | > 1 | –
Cc1cc(C(=O)Nc2cc3cc(c2)Nc2nc(ncc2Cl)Nc2cccc(c2)CC3)no1 [Example B205, N-[6-Chloro-2,4,8,22-tetraazatetracyclo[14.3.1.1(3,7).1(9,13)]docosa-1(20),3(22),4,6,9(21),10,12,16,18-nonaen-11-yl]-5-methylisoxazole-3-carboxamide trifluoroacetate] | 0.146 | > 10 | 0.509 | 0.188 | > 1 | –
Cn1cncc1C(=O)Nc1cc2cc(c1)Nc1nc(ncc1Cl)Nc1cccc(c1)CC2 [Example B208, N-[6-Chloro-2,4,8,22-tetraazatetracyclo[14.3.1.1(3,7).1(9,13)]docosa-1(20),3(22),4,6,9(21),10,12,16,18-nonaen-11-yl]-1-methyl-1H-imidazole-5-carboxamide trifluoroacetate] | 0.057 | > 1 | 0.084 | 0.209 | 0.15 | –
O=C(Nc1cc2cc(c1)Nc1nc(ncc1Cl)Nc1cccc(c1)CC2)c1nccs1 [Example B209, N-[6-Chloro-2,4,8,22-tetraazatetracyclo[14.3.1.1(3,7).1(9,13)]docosa-1(20),3(22),4,6,9(21),10,12,16,18-nonaen-11-yl]-1,3-thiazole-2-carboxamide trifluoroacetate] | 0.051 | > 1 | 0.14 | 0.064 | 0.11 | –
Cc1ncoc1C(=O)Nc1cc2cc(c1)Nc1nc(ncc1Cl)Nc1cccc(c1)CC2 [Example B210, N-[6-Chloro-2,4,8,22-tetraazatetracyclo[14.3.1.1(3,7).1(9,13)]docosa-1(20),3(22),4,6,9(21),10,12,16,18-nonaen-11-yl]-4-methyl-1,3-oxazole-5-carboxamide trifluoroacetate] | 0.042 | > 1 | 0.076 | 0.062 | 0.357 | –
N#Cc1ccc(NC(=O)Nc2cc3cc(c2)Nc2nc(ncc2Cl)Nc2cccc(c2)CC3)cc1 [Example B212, N-[6-Chloro-2,4,8,22-tetraazatetracyclo[14.3.1.1(3,7).1(9,13)]docosa-1(20),3(22),4,6,9(21),10,12,16,18-nonaen-11-yl]-N′-(4-cyanophenyl)urea trifluoroacetate] | 0.238 | – | 0.312 | 0.4 | 0.5 | 14
O=C(Nc1cc2cc(c1)Nc1nc(ncc1Cl)Nc1cccc(c1)CC2)Nc1ccccc1F [Example B213, N-[6-Chloro-2,4,8,22-tetraazatetracyclo[14.3.1.1(3,7).1(9,13)]docosa-1(20),3(22),4,6,9(21),10,12,16,18-nonaen-11-yl]-N′-(2-fluorophenyl)urea trifluoroacetate] | 0.173 | – | 0.184 | 0.07 | 0.206 | 11
O=C(Nc1cccc(F)c1)Nc1cc2cc(c1)Nc1nc(ncc1Cl)Nc1cccc(c1)CC2 [Example B214, N-[6-Chloro-2,4,8,22-tetraazatetracyclo[14.3.1.1(3,7).1(9,13)]docosa-1(20),3(22),4,6,9(21),10,12,16,18-nonaen-11-yl]-N′-(3-fluorophenyl)urea trifluoroacetate] | 0.281 | – | 0.231 | > 1 | > 1 | 39
N#Cc1ccccc1S(=O)(=O)Nc1cc2cc(c1)Nc1nc(ncc1Cl)Nc1cccc(c1)CC2 [Example B216, N-[6-Chloro-2,4,8,22-tetraazatetracyclo[14.3.1.1(3,7).1(9,13)]docosa-1(20),3(22),4,6,9(21),10,12,16,18-nonaen-11-yl]-2-cyanobenzenesulfonamide trifluoroacetate] | 0.029 | – | 0.166 | 0.048 | 0.066 | 1.3
Clc1cccc(N2CCN(Cc3cc4cc(c3)Nc3nc(ncc3Cl)Nc3cccc(c3)CC4)CC2)n1 [Example B217, 6-Chloro-11-{[4-(6-chloropyridin-2-yl)piperazin-1-yl]methyl}-2,4,8,22-tetraazatetracyclo[14.3.1.1(3,7).1(9,13)]docosa-1(20),3(22),4,6,9(21),10,12,16,18-nonaene tris(trifluoroacetate)] | 0.071 | > 10 | 0.199 | 0.225 | > 1 | –

Continued, values first:

IC50 [1] [µM] | IC50 [2] [µM] | IC50 [3] [µM] | IC50 [4] [µM] | IC50 [5] [µM] | ALK % of inhibition at a concentration of 500 nM or 1 mM [2] [%] | Structure (SMILES)
0.019 | > 10 | 0.102 | 0.044 | 0.034 | – | O=S(=O)(Nc1cc2cc(c1)Nc1nc(ncc1Cl)Nc1cccc(c1)CC2)c1ccccc1 [Example B203, N-[6-Chloro-2,4,8,22-tetraazatetracyclo[14.3.1.1(3,7).1(9,13)]docosa-1(20),3(22),4,6,9(21),10,12,16,18-nonaen-11-yl]benzenesulfonamide trifluoroacetate]
0.015 | > 10 | 0.041 | 0.016 | 0.046 | – | O=C(Nc1cc2cc(c1)Nc1nc(ncc1Cl)Nc1cccc(c1)CC2)c1ccno1 [Example B206, N-[6-Chloro-2,4,8,22-tetraazatetracyclo[14.3.1.1(3,7).1(9,13)]docosa-1(20),3(22),4,6,9(21),10,12,16,18-nonaen-11-yl]isoxazole-5-carboxamide trifluoroacetate]
0.043 | – | 0.189 | 0.091 | 0.766 | 31 | O=C(Nc1cc2cc(c1)Nc1nc(ncc1Cl)Nc1cccc(c1)CC2)NC1CCCC1 [Example B215, N-[6-Chloro-2,4,8,22-tetraazatetracyclo[14.3.1.1(3,7).1(9,13)]docosa-1(20),3(22),4,6,9(21),10,12,16,18-nonaen-11-yl]-N′-cyclopentylurea trifluoroacetate]
0.016 | – | 0.029 | 0.0066 | 0.029 | 26 | CC(C)(C)OC(=O)N1CC[C@@H](NCc2ccc3cc2CCc2cccc(c2)Nc2ncc(Cl)c(n2)N3)C1 [Example B219, tert-Butyl (3R)-3-({[6-chloro-2,4,8,22-tetraazatetracyclo[14.3.1.1(3,7).1(9,13)]docosa-1(20),3(22),4,6,9(21),10,12,16,18-nonaen-12-yl]methyl}amino)pyrrolidine-1-carboxylate bis(trifluoroacetate)]
0.012 | – | 0.036 | 0.0074 | 0.028 | 25 | CC(C)(C)OC(=O)N1CC[C@H](NCc2ccc3cc2CCc2cccc(c2)Nc2ncc(Cl)c(n2)N3)C1 [Example B220, tert-Butyl (3S)-3-({[6-chloro-2,4,8,22-tetraazatetracyclo[14.3.1.1(3,7).1(9,13)]docosa-1(20),3(22),4,6,9(21),10,12,16,18-nonaen-12-yl]methyl}amino)pyrrolidine-1-carboxylate bis(trifluoroacetate)]
0.019 | – | 0.059 | 0.012 | 0.043 | 8.1 | CC(C)(C)OC(=O)N1CCN(Cc2ccc3cc2CCc2cccc(c2)Nc2ncc(Cl)c(n2)N3)CC1 [Example B221, tert-Butyl 4-{[6-chloro-2,4,8,22-tetraazatetracyclo[14.3.1.1(3,7).1(9,13)]docosa-1(20),3(22),4,6,9(21),10,12,16,18-nonaen-12-yl]methyl}piperazine-1-carboxylate bis(trifluoroacetate)]
0.014 | – | 0.04 | 0.02 | 0.054 | 34 | Clc1cnc2nc1Nc1ccc(CN[C@@H]3CCNC3)c(c1)CCc1cccc(c1)N2 [Example B222, (3R)—N-{[6-Chloro-2,4,8,22-tetraazatetracyclo[14.3.1.1(3,7).1(9,13)]docosa-1(20),3(22),4,6,9(21),10,12,16,18-nonaen-12-yl]methyl}pyrrolidin-3-amine tris(trifluoroacetate)]
0.0074 | – | 0.029 | 0.017 | 0.042 | 41 | Clc1cnc2nc1Nc1ccc(CN[C@H]3CCNC3)c(c1)CCc1cccc(c1)N2 [Example B223, (3S)—N-{[6-Chloro-2,4,8,22-tetraazatetracyclo[14.3.1.1(3,7).1(9,13)]docosa-1(20),3(22),4,6,9(21),10,12,16,18-nonaen-12-yl]methyl}pyrrolidin-3-amine tris(trifluoroacetate)]

From patent publication US8871753B2, “Macrocyclic compounds and their use as kinase inhibitors” (Incyte Corporation, priority 2008, dated 2014)
